Calls of active or inactive are those of the source. The calls are words filed in the database; no cut-off is given here.
What was measured:
[1] = tested on: 4T1; assay: Antitumor activity against mouse 4T1 cells implanted in BALB/c mouse assessed as upregulation of caspase-7 level in tumor at 5 to 15 mg/kg, ip by Western blot analysis; assay type: functional, organism-based; details: dose 5-15 mg/kg
[2] = Metabolic stability in rat liver microsome assessed as intrinsic clearance preincubated for 5 mins followed by NADPH addition and measured after 60 mins by HPLC analysis; assay type: ADME; details: liver microsomes, time 65 min, read-out: CLH
[3] = Cytotoxicity against human HEK293 cells assessed as inhibition of cell growth incubated for 72 hrs by MTT assay; assay type: toxicity, cell-based
[4] = tested on: 4T1; assay: Cell cycle arrest in mouse 4T1 cells assessed as accumulation of cells at G2/M phase at 110 nM incubated for 72 hrs by flow cytometry; assay type: functional
[5] = tested on: 4T1; assay: Induction of apoptosis in mouse 4T1 cells at 2.75 uM incubated for 72 hrs by annexin/PI staining based flow cytometry analysis (reference value: 1.35%); assay type: functional
[6] = tested on: 4T1; assay: In-vivo inhibition of HDAC3 in ip dosed BALB/c mouse implanted with mouse 4T1 cells assessed as hyperacetylation of H3K27 level by Western blot analysis; assay type: functional, organism-based; details: dose 5-15 mg/kg
[7] = tested on: 4T1; assay: In-vivo inhibition of HDAC3 in BALB/c mouse implanted with mouse 4T1 cells assessed as increase in acetylation of tubulin level at 5 to 15 mg/kg, ip by Western blot analysis; assay type: functional, organism-based; details: dose 5-15 mg/kg
[8] = Selectivity ratio of IC50 for cytotoxicity against human HEK293 cells assessed as inhibition of cell growth to IC50 for cytotoxicity against mouse 4T1 cells assessed as inhibition of cell growth; assay type: toxicity, cell-based; details: HEK293 cells versus 4T1 cells, read-out: Ratio IC50
[9] = tested on: 4T1; assay: Antitumor activity against mouse 4T1 cells implanted in BALB/c mouse assessed as decrease in number of lung aggregated cells at 15 mg/kg, ip measured for 7 days by H and E staining based assay; assay type: functional, organism-based; details: time 7.0 day
[10] = Metabolic stability in rat liver microsome assessed as half life preincubated for 5 mins followed by NADPH addition and measured after 60 mins by HPLC analysis; assay type: ADME; details: liver microsomes, time 65 min
[11] = AUMC (0 to infinity) in Wistar rat at 5 mg/kg, ip measured upto 24 hrs by HPLC analysis; assay type: ADME, organism-based; details: in vivo
[12] = Toxicity in BALB/c mouse implanted with mouse 4T1 cells assessed as effect on cell shape in kidney at 5 to 15 mg/kg, ip measured after 21 days by H and E staining based assay; assay type: organism-based; details: in vivo, 504 h, dose 5-15 mg/kg, time 21 day
[13] = MRT (0 to infinity) in Wistar rat at 15 mg/kg, ip measured upto 24 hrs by HPLC analysis; assay type: ADME, organism-based; details: in vivo
[14] = biological target: T1, Histone deacetylase 8 (Homo sapiens, UniProt Q9BY41); assay: Inhibition of human recombinant HDAC8 incubated for 15 mins by fluorescence based microplate analysis
T1 sequence (Q9BY41 whole entry): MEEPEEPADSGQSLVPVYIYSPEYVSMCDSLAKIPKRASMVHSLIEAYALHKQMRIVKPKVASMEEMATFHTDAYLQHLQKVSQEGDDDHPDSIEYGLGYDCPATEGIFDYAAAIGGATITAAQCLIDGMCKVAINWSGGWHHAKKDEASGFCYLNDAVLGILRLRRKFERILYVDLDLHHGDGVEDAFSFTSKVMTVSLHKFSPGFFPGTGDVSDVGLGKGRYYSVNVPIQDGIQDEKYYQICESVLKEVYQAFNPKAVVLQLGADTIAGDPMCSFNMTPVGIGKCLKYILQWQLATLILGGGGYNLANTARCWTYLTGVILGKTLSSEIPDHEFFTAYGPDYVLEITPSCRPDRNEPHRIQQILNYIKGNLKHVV

[15] = Selectivity ratio of IC50 for cytotoxicity against human MCF-10A cells assessed as inhibition of cell growth to IC50 for cytotoxicity against […] cells assessed as inhibition of cell growth; assay type: toxicity, cell-based; details: MCF-10A cells versus 4T1 cells, read-out: Ratio IC50
[16] = Selectivity ratio of IC50 for cytotoxicity against human HEK293 cells assessed as inhibition of cell growth to IC50 for cytotoxicity against human MDA-MB-453 cells assessed as inhibition of cell growth; assay type: toxicity, cell-based; details: HEK293 cells versus MDA-MB-453 cells, read-out: Ratio IC50
[17] = Cytotoxicity against human HCEC cells assessed as inhibition of cell growth incubated for 72 hrs by MTT assay; assay type: toxicity, cell-based; details: human, HCEC cells
[18] = tested on: Mus musculus; assay: Induction of ROS generation in mouse implanted with mouse 4T1 cells at 5 mg/kg, ip administered for 21 days by DCFH-DA staining based microscopic analysis; assay type: functional, organism-based; details: time 21.0 day
[19] = Selectivity ratio of IC50 for cytotoxicity against human HEK293 cells assessed as inhibition of cell growth to IC50 for cytotoxicity against human MDA-MB-231 cells assessed as inhibition of cell growth; assay type: toxicity, cell-based; details: HEK293 cells versus MDA-MB-231 cells, read-out: Ratio IC50
[20] = Toxicity against BALB/c mouse implanted with mouse 4T1 cells assessed as body weight gain at 5 to 15 mg/kg,ip administered 5 times a week for 21 days; assay type: organism-based; details: in vivo, 504 h, dose 5-15 mg/kg, time 21 day
[21] = tested on: 4T1; assay: Antitumor activity against mouse 4T1 cells implanted in BALB/c mouse assessed as tumor growth inhibition at 15 mg/kg, ip measured on day 7; assay type: functional; details: 4T1, 168 h, time 7 day, read-out: TGI
[22] = Apparent volume of distribution in Wistar rat at 15 mg/kg, ip measured upto 24 hrs by HPLC analysis; assay type: ADME, organism-based; details: in vivo
[23] = tested on: 4T1; assay: Antitumor activity against mouse 4T1 cells implanted in BALB/c mouse assessed as reduction in EGFR protein level in tumor at 5 to 15 mg/kg, ip by Western blot analysis; assay type: functional, organism-based; details: dose 5-15 mg/kg
[24] = tested on: 4T1; assay: Antitumor activity against mouse 4T1 cells implanted in BALB/c mouse assessed as downregulation of Bcl-2 level in tumor at 5 to 15 mg/kg, ip by Western blot analysis; assay type: functional, organism-based; details: dose 5-15 mg/kg
[25] = AUC (0 to infinity) in Wistar rat at 5 mg/kg, ip measured upto 24 hrs by HPLC analysis; assay type: ADME, organism-based; design: dose 5 mg/kg, time < 24 hrs, route ip; details: in vivo
[26] = tested on: 4T1; assay: Antitumor activity against mouse 4T1 cells implanted in BALB/c mouse assessed as reduction in CD44 protein level in tumor at 5 to 15 mg/kg, ip by Western blot analysis; assay type: functional, organism-based; details: dose 5-15 mg/kg
[27] = tested on: 4T1; assay: Induction of apoptosis in mouse 4T1 cells at 38.6 uM incubated for 72 hrs by annexin/PI staining based flow cytometry analysis (reference value: 1.35%); assay type: functional
[28] = Toxicity in BALB/c mouse implanted with mouse 4T1 cells assessed as effect on cell shape in heart at 5 to 15 mg/kg, ip measured after 21 days by H and E staining based assay; assay type: organism-based; details: in vivo, 504 h, dose 5-15 mg/kg, time 21 day
[29] = Selectivity ratio of IC50 for cytotoxicity against human MCF-10A cells assessed as inhibition of cell growth to IC50 for cytotoxicity against human MDA-MB-231 cells assessed as inhibition of cell growth; assay type: toxicity, cell-based; details: MCF-10A cells versus MDA-MB-231 cells, read-out: Ratio IC50
[30] = tested on: 4T1; assay: Antitumor activity against mouse 4T1 cells implanted in BALB/c mouse assessed as tumor growth inhibition at 15 mg/kg, ip measured on day 21; assay type: functional; details: 4T1, 504 h, time 21 day, read-out: TGI

Compound: CCCNNC(=O)c1cnc(NCc2ccc(OC)cc2)cn1
- Activity [1]: Active
- microsomal CLint [2]: 36.2 µL/min/mg
- IC50 at 72 h [3]: 239 µM
- Activity [4]: 38.8%
- Activity [5]: 94.6%
- inhibition [6]: Dose-Dependent Effect
- inhibition [7]: Active
- selectivity ratio [8]: 286
- Activity [9]: Active
- half-life [10]: 0.639 h
- AUMC [11]: 29.08 ug/ml.hr^2
- Activity [12]: Non-Toxic
- MRT inf [13]: 6.57 h
- IC50 [14]: 10.7 µM
- selectivity ratio [15]: 385
- selectivity ratio [16]: 286
- IC50 at 72 h [17]: 212 µM
- Activity [18]: Active
- selectivity ratio [19]: 286
- Activity [20]: Non-Toxic
- inhibition in vivo at 15 mg/kg [21]: 84.9%
- Vz/F [22]: 12.57 (mg/kg)/(ug/ml)
- Activity [23]: Active
- Activity [24]: Active
- AUC(0-inf) [25]: 4320 ng·h/mL
- Activity [26]: Active
- Activity [27]: 82.7%
- Activity [28]: Non-Toxic
- selectivity ratio [29]: 385
- inhibition in vivo at 15 mg/kg [30]: 97.9%

Reference: ChEMBL document CHEMBL5365457, “Selective HDAC3 Inhibitors with Potent In Vivo Antitumor Efficacy against Triple-Negative Breast Cancer” (J Med Chem, 2023)
